Test results: patent US20220402862A1 (Intellia Therapeutics, Inc., priority 2019, published 2022)

Experiments:
[1] = RNA encapsulation efficiency of LNPs (Ribogreen fluorescence assay); type: physicochemical; settings: LNP
Procedure: A fluorescence-based assay (Ribogreen®, ThermoFisher Scientific) is used to determine total RNA concentration and free RNA. Encapsulation efficiency is calculated as (Total RNA-Free RNA)/Total RNA. LNP samples are diluted appropriately with 1× TE buffer containing 0.2% Triton-X 100 to determine total RNA or 1× TE buffer to determine free RNA. Standard curves are prepared by utilizing the starting RNA solution used to make the compositions and diluted in 1× TE buffer +/− 0.2% Triton-X 100. Diluted RiboGreen® dye (according to the manufacturer's instructions) is then added to each of the standards and samples and allowed to incubate for approximately 10 minutes at room temperature, in the absence of light. A SpectraMax M5 Microplate Reader (Molecular Devices) is used to read the samples with excitation, auto cutoff and emission wavelengths set to 488 nm, 515 nm, and 525 nm respectively. Total RNA and free RNA are determined from the appropriate standard curves.
Encapsulation efficiency is calculated as (Total RNA-Free RNA)/Total RNA. The same procedure may be used for determining the encapsulation efficiency of a DNA-based cargo component. In a fluorescence-based assay, for single-strand DNA Oligreen Dye may be used, and for double-strand DNA, Picogreen Dye. Alternatively, the total RNA concentration can be determined by a reverse-phase ion-pairing (RP-IP) HPLC method. Triton X-100 is used to disrupt the LNPs, releasing the RNA. The RNA is then separated from the lipid components chromatographically by RP-IP HPLC and quantified against a standard curve using UV absorbance at 260 nm.

[2] = Dynamic light scattering of LNPs: Z-average diameter, number average diameter, PDI; type: physicochemical; settings: LNP
Procedure: Dynamic Light Scattering (“DLS”) is used to characterize the polydispersity index (“PDI”) and size of the LNPs of the present disclosure. DLS measures the scattering of light that results from subjecting a sample to a light source. PDI, as determined from DLS measurements, represents the distribution of particle size (around the mean particle size) in a population, with a perfectly uniform population having a PDI of zero.
LNP compositions are analyzed for average particle size, polydispersity index (PDI), total RNA content, encapsulation efficiency of RNA, and zeta potential. LNP compositions may be further characterized by lipid analysis, AF4-MALS, NTA, and/or cryo-EM. Average particle size and polydispersity are measured by dynamic light scattering (DLS) using a Malvern Zetasizer DLS instrument or Wyatt NanoStar. LNP samples were diluted with PBS buffer prior to being measured by DLS. Z-average diameter which is an intensity-based measurement of average particle size is reported along with number average diameter and PDI. A Malvern Zetasizer or Wyatt NanoStar instrument is also used to measure the zeta potential of the LNP. Samples are diluted 1:17 (50 μL into 800 μL) in 0.1× PBS, pH 7.4 prior to measurement.

[3] = tested on: Transthyretin (TTR); assay: Serum TTR ELISA in mice after LNP dosing; type: in vivo, CD-1 female mice; settings: guide G282 experiments; for Serum TTR % TSS: mouse serum TTR relative to TSS control; for Serum TTR: mouse serum, ELISA
Procedure: CD-1 female mice ranging from 6-10 weeks of age were used in each study. Animals were weighed and grouped according to body weight for preparing dosing solutions based on group average weight. LNPs were dosed via the lateral tail vein in a volume of 0.2 mL per animal (approximately 10 mL per kilogram body weight). The animals were periodically observed for adverse effects for at least 24 hours post dose. For studies measuring in vivo editing in liver, CD-1 female mice were dosed at 0.1 mg/kg unless otherwise noted. Animals were euthanized at 6 or 7 days by ex sanguination via cardiac puncture under isoflurane anesthesia. Liver tissue was collected from each animal for DNA extraction and analysis. Blood was collected into serum separator tubes or into tubes containing buffered sodium citrate for plasma as described herein. Cohorts of mice were measured for editing by Next-Generation Sequencing (NGS).
Blood was collected and the serum was isolated as indicated. The total mouse TTR serum levels were determined using a Mouse Prealbumin (Transthyretin) ELISA Kit (Aviva Systems Biology, Cat. OKIA00111). Briefly, sera were serial diluted with kit sample diluent to a final dilution of 10,000-fold for 0.1 mg/kg dose and final dilutions of 10,000-fold and of 2,500-fold for 0.3 mg/kg. This diluted sample was then added to the ELISA plates and the assay was carried out according to the manufacturer's directions.

[4] = sg:mRNA 1:1, N/P about 6, amine lipid/DSPC/cholesterol/PEG-2k-DMG 50/9/38/3, Table 2, Experiments 2-20
[5] = sg:mRNA 1:1, N/P about 6, 50/9/38/3, Table 2, Experiments 2-20
[6] = sg:mRNA 1:1.3, N/P about 6, 50/9/38/3, Table 2, Experiment 1

CCCCC/C=C\C/C=C\CCCCCCCC(=O)OCC(COC(=O)CCC(OCCCCCCCC)OCCCCCCCC)COC(=O)OCCN(CC)CC (stereo not drawn) [Compound 9, 3-((4,4-bis(octyloxy)butanoyl)oxy)-2-((((2-(diethylamino)ethoxy)carbonyl)oxy)methyl)propyl (9Z,12Z)-octadeca-9,12-dienoate]
Encapsulation (%) [1, 4]: 89% | Number mean (nm) [2, 5]: 45.11 nm | PDI [2, 5]: 0.058 | Z-avg (nm) [2, 5]: 62.99 nm | Serum TTR % TSS [3]: 100% | Serum TTR [3]: 865 µg/mL

CCCCC/C=C\C/C=C\CCCCCCCC(=O)OCC(COC(=O)CCC(OCCCCCCCC)OCCCCCCCC)COC(=O)OCCCN(C)CC (stereo not drawn) [Compound 20, 3-((4,4-bis(octyloxy)butanoyl)oxy)-2-((((3-(ethyl(methyl)amino)propoxy)carbonyl)oxy)methyl)propyl (9Z,12Z)-octadeca-9,12-dienoate]
Encapsulation (%) [1, 4]: 96% | Number mean (nm) [2, 5]: 64.34 nm | PDI [2, 5]: 0.023 | Z-avg (nm) [2, 5]: 79.25 nm | Serum TTR % TSS [3]: 46% | Serum TTR [3]: 476 µg/mL

CCCCC/C=C\C/C=C\CCCCCCCC(=O)OCC(COC(=O)CCC(OCCCCCCCC)OCCCCCCCC)COC(=O)OCCN1CCCC1 (stereo not drawn) [Compound 10, 3-((4,4-bis(octyloxy)butanoyl)oxy)-2-((((2-(pyrrolidin-1-yl)ethoxy)carbonyl)oxy)methyl)propyl (9Z,12Z)-octadeca-9,12-dienoate]
Encapsulation (%) [1, 4]: 90% | Number mean (nm) [2, 5]: 39.12 nm | PDI [2, 5]: 0.086 | Z-avg (nm) [2, 5]: 57.21 nm | Serum TTR % TSS [3]: 96% | Serum TTR [3]: 871 µg/mL

CCCCC/C=C\C/C=C\CCCCCCCC(=O)OCC(COC(=O)CCC(OCCCCCCCC)OCCCCCCCC)COC(=O)OCCCCN(CC)CC (stereo not drawn) [Compound 11, 3-((4,4-bis(octyloxy)butanoyl)oxy)-2-((((4-(diethylamino)butoxy)carbonyl)oxy)methyl)propyl (9Z,12Z)-octadeca-9,12-dienoate]
Encapsulation (%) [1, 4]: 97% | Number mean (nm) [2, 5]: 68.35 nm | PDI [2, 5]: 0.022 | Z-avg (nm) [2, 5]: 85.35 nm | Serum TTR % TSS [3]: 78% | Serum TTR [3]: 706 µg/mL

CCCCC/C=C\C/C=C\CCCCCCCC(=O)OCC(COC(=O)CCC(OCCCCCCCC)OCCCCCCCC)COC(=O)OCCC(C)N(C)C (stereo not drawn) [Compound 22, 3-((4,4-bis(octyloxy)butanoyl)oxy)-2-((((3-(dimethylamino)butoxy)carbonyl)oxy)methyl)propyl (9Z,12Z)-octadeca-9,12-dienoate]
Encapsulation (%) [1, 4]: 98% | Number mean (nm) [2, 5]: 73.96 nm | PDI [2, 5]: 0.004 | Z-avg (nm) [2, 5]: 89.43 nm | Serum TTR % TSS [3]: 61% | Serum TTR [3]: 634 µg/mL

CCCCC/C=C\C/C=C\CCCCCCCC(=O)OCC(COC(=O)CCC(OCCCCCCCC)OCCCCCCCC)COC(=O)OC1CCN(CC)CC1 (stereo not drawn) [Compound 17, 3-((4,4-bis(octyloxy)butanoyl)oxy)-2-(((((1-ethylpiperidin-4-yl)oxy)carbonyl)oxy)methyl)propyl (9Z,12Z)-octadeca-9,12-dienoate]
Encapsulation (%) [1, 4]: 98% | Number mean (nm) [2, 5]: 56.58 nm | PDI [2, 5]: 0.037 | Z-avg (nm) [2, 5]: 70.97 nm | Serum TTR % TSS [3]: 70% | Serum TTR [3]: 727 µg/mL

CCCCC/C=C\C/C=C\CCCCCCCC(=O)OCC(COC(=O)CCC(OCCCCCCCC)OCCCCCCCC)COC(=O)OCCCCN1CCCC1 (stereo not drawn) [Compound 13, 3-((4,4-bis(octyloxy)butanoyl)oxy)-2-((((4-(pyrrolidin-1-yl)butoxy)carbonyl)oxy)methyl)propyl (9Z,12Z)-octadeca-9,12-dienoate]
Encapsulation (%) [1, 4]: 97% | Number mean (nm) [2, 5]: 74.6 nm | PDI [2, 5]: 0.013 | Z-avg (nm) [2, 5]: 91.12 nm | Serum TTR % TSS [3]: 93% | Serum TTR [3]: 837 µg/mL

CCCCC/C=C\C/C=C\CCCCCCCC(=O)OCC(COC(=O)CCC(OCCCCCCCC)OCCCCCCCC)COC(=O)OCCN(C)C (stereo not drawn) [Compound 18, 3-((4,4-bis(octyloxy)butanoyl)oxy)-2-((((2-(dimethylamino)ethoxy)carbonyl)oxy)methyl)propyl (9Z,12Z)-octadeca-9,12-dienoate]
Encapsulation (%) [1, 4]: 97% | Number mean (nm) [2, 5]: 48.22 nm | PDI [2, 5]: 0.090 | Z-avg (nm) [2, 5]: 68.72 nm | Serum TTR % TSS [3]: 82% | Serum TTR [3]: 849 µg/mL

CCCCC/C=C\C/C=C\CCCCCCCC(=O)OCC(COC(=O)CCC(OCCCCCCCC)OCCCCCCCC)COC(=O)NCCCN1CCCC1 (stereo not drawn) [Compound 8, 3-((4,4-bis(octyloxy)butanoyl)oxy)-2-((((3-(pyrrolidin-1-yl)propyl)carbamoyl)oxy)methyl)propyl (9Z,12Z)-octadeca-9,12-dienoate]
Encapsulation (%) [1, 4]: 100% | Number mean (nm) [2, 5]: 37.17 nm | PDI [2, 5]: 0.093 | Z-avg (nm) [2, 5]: 53.88 nm | Serum TTR % TSS [3]: 106% | Serum TTR [3]: 962 µg/mL

CCCCC/C=C\C/C=C\CCCCCCCC(=O)OCC(COC(=O)CCC(OCCCCCCCC)OCCCCCCCC)COC(=O)OCC1CCCN1C (stereo not drawn) [Compound 14, 3-((4,4-bis(octyloxy)butanoyl)oxy)-2-(((((1-methylpyrrolidin-2-yl)methoxy)carbonyl)oxy)methyl)propyl (9Z,12Z)-octadeca-9,12-dienoate]
Encapsulation (%) [1, 4]: 93% | Number mean (nm) [2, 5]: 45.18 nm | PDI [2, 5]: 0.091 | Z-avg (nm) [2, 5]: 64.69 nm | Serum TTR % TSS [3]: 88% | Serum TTR [3]: 908 µg/mL

CCCCC/C=C\C/C=C\CCCCCCCC(=O)OCC(COC(=O)CCC(OCCCCCCCC)OCCCCCCCC)COC(=O)OCCCN1CCCC1 (stereo not drawn) [Compound 3, 3-((4,4-bis(octyloxy)butanoyl)oxy)-2-((((3-(pyrrolidin-1-yl)propoxy)carbonyl)oxy)methyl)propyl (9Z,12Z)-octadeca-9,12-dienoate]
Encapsulation (%) ([1]; sg:mRNA 1:1.3, N/P about 6, amine lipid/DSPC/cholesterol/PEG-2k-DMG 50/9/38/3, Table 2, Experiment 1): 91% | Number mean (nm) [2, 6]: 61.67 nm | PDI [2, 6]: 0.079 | Z-avg (nm) [2, 6]: 86.16 nm | Serum TTR % TSS [3]: 105% | Serum TTR [3]: 1297 µg/mL
